In PubChem BioAssay AID1996:
≈ marks a conversion by molar mass, not a printed value.

Settings: buffer; pH 7.4; 200.0 µM
For O=C(O)/C=C/C(=O)Nc1ccc(Cl)c(C(=O)O)c1, the solubility kinetic was 0.038 mg/mL (≈ 141 µM).
Work on CC(CCc1ccccc1)NS(=O)(=O)c1ccccc1Cl (stereo unspecified) yielded a solubility kinetic of 0.02 mg/mL (≈ 61.8 µM).
O=C(NC1CCCCCC1)C1CCCN(c2ncccn2)C1 (stereo unspecified) showed a solubility kinetic of over 0.0454 mg/mL.
Molecule Cc1cc(C)c2c(=O)cc(C(=O)NCc3ccccc3)oc2c1 has a solubility kinetic of under 0.0007 mg/mL.
In the case of O=C(COC(=O)c1cccc(S(=O)(=O)N2CCOCC2)c1)NCc1ccc2c(c1)OCO2, the solubility kinetic is reported as 0.0668 mg/mL (≈ 144 µM).
Work on CC(=O)Nc1ccc(NS(=O)(=O)c2ccc3c(c2)oc(=O)n3C)cc1 yielded a solubility kinetic of over 0.0542 mg/mL.
Cc1ccc(Nc2nc(-c3cccnc3)cs2)cc1C gave a solubility kinetic of 0.0004 mg/mL (≈ 1.42 µM).
In the case of CCN(CC)S(=O)(=O)c1ccc(N2CCOCC2)c(NC(=O)c2[nH]c(C)c(C(C)=O)c2C)c1, the solubility kinetic is reported as 0.0039 mg/mL (≈ 8.18 µM).
In the case of Cc1cc(C(=O)Nc2ncc(C)s2)c2ccccc2n1, the solubility kinetic is reported as 0.018 mg/mL (≈ 63.5 µM).
With C=CCOC(=O)c1ccc(N2CCN(c3ccccc3)CC2)nc1 the solubility kinetic was 0.0009 mg/mL (≈ 2.78 µM).
Work on CC1CC(C)CN(c2cc(N(C)CCO)c([N+](=O)[O-])c3nonc23)C1 (stereo unspecified) yielded a solubility kinetic of 0.0521 mg/mL (≈ 149 µM).
O=C(Cc1ccccc1[N+](=O)[O-])NC1CC2CCC1C2 (stereo unspecified) showed a solubility kinetic of over 0.0411 mg/mL.
In the case of COc1ccc(NC(=O)CCCc2ccc(OC)c(C)c2)cc1, the solubility kinetic is reported as 0.0021 mg/mL (≈ 6.7 µM).
In the case of Cc1csc(SCC(=O)NCc2cccc(Cl)c2)n1, the solubility kinetic is reported as over 0.0469 mg/mL.
With COc1cc(Cl)c(C)cc1NC(=O)CSc1nnc(CN2CCCC2)o1 the solubility kinetic was over 0.0595 mg/mL.
COc1ccc(/C=N/OC(=O)c2ccc(Cl)cc2)c(Cl)c1OC gave a solubility kinetic of under 0.0008 mg/mL.
In the case of CCCC#CCN1CCN(C23CC4CC(CC(C4)C2)C3)CC1, the solubility kinetic is reported as 0.0426 mg/mL (≈ 142 µM).
Work on COc1ccc(CN2C(=O)CNC2=S)cc1 yielded a solubility kinetic of over 0.0354 mg/mL.
Molecule Cc1ccc(NC(=O)C2CCN(c3nc(C)cc(C)n3)CC2)cc1 has a solubility kinetic of 0.0024 mg/mL (≈ 7.4 µM).
Work on Cc1nnc(-c2cnn(C)c2N)n1CCCN1CCOCC1 yielded a solubility kinetic of over 0.0458 mg/mL.
Work on OC(CNCc1ccccc1Cl)COc1ccc(F)cc1 (stereo unspecified) yielded a solubility kinetic of over 0.0465 mg/mL.
Molecule C/C(=N\NC(=O)c1cccnc1)c1ccccc1 has a solubility kinetic of over 0.0359 mg/mL.
O=C(COC(=O)/C=C/c1cccc(C(F)(F)F)c1)NC(=O)NCc1ccco1 gave a solubility kinetic of 0.0045 mg/mL (≈ 11.4 µM).
For COc1cccc(-c2nc(NCc3cccnc3)c3ccccc3n2)c1O, the solubility kinetic was 0.0003 mg/mL (≈ 0.837 µM).
Molecule CCN1CCN(c2ccc(NC(=O)c3ccc(Br)o3)cc2)CC1 has a solubility kinetic of over 0.0567 mg/mL.
With O=C(NCc1cccc(Cl)c1)NC(=O)c1csc([N+](=O)[O-])c1 the solubility kinetic was under 0.0002 mg/mL.
CN(C)C(=O)c1cc(C(=O)c2ccc(F)cc2F)c[nH]1 gave a solubility kinetic of over 0.0417 mg/mL.
For Cc1ccc(C(=O)c2cc3c(cc2[N+](=O)[O-])OCCO3)cc1, the solubility kinetic was 0.008 mg/mL (≈ 26.7 µM).
For CCOc1ccc(NC(=O)C2CCN(S(C)(=O)=O)CC2)cc1, the solubility kinetic was 0.0202 mg/mL (≈ 61.9 µM).
With O=C1NC(=Nc2ccc(F)cc2)CS1 the solubility kinetic was over 0.0315 mg/mL.
O=C(c1ccc(F)cc1)N1CCCC(C(=O)N2CCCCC2)C1 (stereo unspecified) showed a solubility kinetic of over 0.0478 mg/mL.
CN1CCN(CCCNC(=S)Nc2ccc(F)c(Cl)c2)CC1 showed a solubility kinetic of 0.043 mg/mL (≈ 125 µM).
Work on CCC(=NCCc1ccccc1)c1c(O)[nH]c(=O)[nH]c1=O yielded a solubility kinetic of over 0.0431 mg/mL.
COc1ccc(C(=O)/C=C/Nc2cc(C)ccn2)cc1 showed a solubility kinetic of 0.0058 mg/mL (≈ 21.6 µM).
Cn1cnnc1SCC(=O)NC1CCCc2ccccc21 (stereo unspecified) gave a solubility kinetic of over 0.0454 mg/mL.
In the case of COc1ccccc1C(=O)O/N=C(\N)c1ccccn1, the solubility kinetic is reported as over 0.0407 mg/mL.
Work on CCOc1ccc(N2CC(C(=O)NCc3ccccc3)CC2=O)cc1 (stereo unspecified) yielded a solubility kinetic of 0.0098 mg/mL (≈ 29 µM).
CC(=O)c1sc2nc(-c3ccco3)ccc2c1N showed a solubility kinetic of 0.006 mg/mL (≈ 23.2 µM).
Cc1nnc(SCC(=O)Nc2ccc(F)cc2)n(N)c1=O showed a solubility kinetic of over 0.0464 mg/mL.
For COc1ccccc1NC(=S)N(C(C)C)C(C)c1ccccn1 (stereo unspecified), the solubility kinetic was 0.0378 mg/mL (≈ 115 µM).
Nc1ccc2c(c1)COC2=O gave a solubility kinetic of 0.0222 mg/mL (≈ 149 µM).
Cc1cc(S(=O)(=O)N2CCN(c3ccccn3)CC2)ccc1F gave a solubility kinetic of 0.0036 mg/mL (≈ 10.7 µM).
For O=C(CC(SCCO)c1ccc([N+](=O)[O-])cc1)c1ccco1 (stereo unspecified), the solubility kinetic was 0.0037 mg/mL (≈ 11.5 µM).
CCn1c(SCC(=O)NC2CCCCC2)nnc1-c1ccccc1F gave a solubility kinetic of over 0.0544 mg/mL.
With CSc1sc(C(=O)N2CCc3ccccc32)cc1S(=O)(=O)C(C)C the solubility kinetic was under 0.0008 mg/mL.
For O=C(Nc1ccc(Cl)cc1)N1CCN(c2ncccn2)CC1, the solubility kinetic was 0.0444 mg/mL (≈ 140 µM).
O=C(O)CSCc1nc2ccccc2[nH]1 gave a solubility kinetic of 0.0317 mg/mL (≈ 143 µM).
Molecule COc1ccc(OC)c(CN2CCCCCC2)c1.O=C(O)C(=O)O has a solubility kinetic of 0.0482 mg/mL.
Molecule NC(=O)C1CCCN(S(=O)(=O)c2ccc3ccccc3c2)C1 (stereo unspecified) has a solubility kinetic of 0.0131 mg/mL (≈ 41.1 µM).
With Cc1cc(C)n(Cc2cc(C(=O)O)c3ccccc3n2)n1 the solubility kinetic was over 0.0422 mg/mL.
In the case of COc1ccc2c(c1)CC/C2=N\OC(=O)c1ccccc1C, the solubility kinetic is reported as under 0.0006 mg/mL.
CC1(C)Oc2ccc(C(=O)NC3CCCCC3)cc2N(CC#N)C1=O showed a solubility kinetic of 0.0129 mg/mL (≈ 37.8 µM).
In the case of Nc1ccc(S(=O)(=O)NC(Cc2ccccc2)C(=O)O)cc1 (stereo unspecified), the solubility kinetic is reported as 0.0329 mg/mL (≈ 103 µM).
Cc1cc(C)n2cc(CSc3ccc(Cl)cc3)nc2n1 gave a solubility kinetic of over 0.0456 mg/mL.
For CC(=O)OCCN(C)c1cc(SC(C)C)c2nonc2c1[N+](=O)[O-], the solubility kinetic was 0.0512 mg/mL (≈ 144 µM).
Molecule COc1ccc(CCNCc2ccccc2)cc1.O=C(O)C(=O)O has a solubility kinetic of over 0.0497 mg/mL.
Work on CC(=O)Nc1ccc(C(=O)NCCCOC(C)C)cc1 yielded a solubility kinetic of 0.0396 mg/mL (≈ 142 µM).
Cc1cc(C)c(O)c(NC(=S)NC(=O)Cc2ccccc2)c1 gave a solubility kinetic of 0.0039 mg/mL (≈ 12.4 µM).
In the case of CC(=O)NC(C(=O)c1ccccc1)N1CCCCC1 (stereo unspecified), the solubility kinetic is reported as 0.0291 mg/mL (≈ 112 µM).
In the case of CC(C)c1ccc(CSc2ccc(S(=O)(=O)N3CCOCC3)cn2)cc1, the solubility kinetic is reported as 0.0019 mg/mL (≈ 4.84 µM).
CCC(C)(C)c1ccc(OC(=O)c2cccnc2Cl)cc1 gave a solubility kinetic of under 0.0007 mg/mL.
With O=C(O)c1cc(-c2ccco2)nc2cc3ccccc3cc12 the solubility kinetic was over 0.0434 mg/mL.
For O=C1Nc2ccc3sc4ccccc4c3c2C1=O, the solubility kinetic was 0.0006 mg/mL (≈ 2.37 µM).
S=C(NCCc1ccccc1)NCCc1cnc[nH]1 showed a solubility kinetic of over 0.0412 mg/mL.
O=C(NCC(=O)N1CCCC1)c1ccccc1F gave a solubility kinetic of over 0.0375 mg/mL.
COc1cccc(C(=O)Nc2ccc(Oc3cccc(C(F)(F)F)c3)nc2)c1 showed a solubility kinetic of under 0.0004 mg/mL.
In the case of CC(C)(C)c1ccc(SCCc2ccncc2)cc1, the solubility kinetic is reported as 0.0065 mg/mL (≈ 23.9 µM).
CCN(CC)CCNc1ccc(CO)c2sc3ccccc3c(=O)c12 showed a solubility kinetic of over 0.0535 mg/mL.
Work on COc1ccccc1C1CCN(c2ccc([N+](=O)[O-])c(OC)c2)CC1 yielded a solubility kinetic of under 0.0004 mg/mL.
CCC(CC)C(=O)NCc1cccnc1 showed a solubility kinetic of over 0.0309 mg/mL.
For NC(=O)C1CCCN(C(=S)NCc2ccc3c(c2)OCO3)C1 (stereo unspecified), the solubility kinetic was over 0.0482 mg/mL.
In the case of Cc1ccc(C(=O)NCC(=O)Nc2ccc3c(c2)CCC3)cc1, the solubility kinetic is reported as 0.003 mg/mL (≈ 9.73 µM).
Work on Cc1ccc(S(=O)(=O)N2CCN(C3CC(=O)N(c4ccc(F)cc4)C3=O)CC2)cc1C (stereo unspecified) yielded a solubility kinetic of 0.0525 mg/mL (≈ 118 µM).
Molecule COC(=O)c1sccc1NC(=S)N1CCC(C(N)=O)CC1 has a solubility kinetic of 0.0425 mg/mL (≈ 130 µM).
Cc1ccc(NC(=O)CCCc2c[nH]c3ccccc23)nc1 gave a solubility kinetic of 0.0038 mg/mL (≈ 13 µM).
Molecule CN(C)S(=O)(=O)c1ccc(C(=O)OCC2CCCO2)cc1 (stereo unspecified) has a solubility kinetic of over 0.047 mg/mL.
COC(=O)c1[nH]c2c(c1C(=O)OC)CCc1ccccc1-2 gave a solubility kinetic of 0.0194 mg/mL (≈ 68 µM).
COc1ccccc1C(=O)NCCSCc1c(F)cccc1Cl showed a solubility kinetic of 0.0136 mg/mL (≈ 38.4 µM).
Molecule O=S(=O)(Nc1ncccn1)c1ccc(Cl)cc1 has a solubility kinetic of 0.0401 mg/mL (≈ 149 µM).
For O=C(Cc1ccccc1)NCC(=O)N1CCc2ccccc2C1, the solubility kinetic was over 0.0463 mg/mL.
COc1ccc(/C=N/NC(=O)c2ccncc2)c(C(=O)O)c1OC showed a solubility kinetic of over 0.0494 mg/mL.
Molecule O=c1cc(OCc2ccccc2)cc[nH]1 has a solubility kinetic of over 0.0302 mg/mL.
CC(=O)c1cc(C#N)c(SCC(=O)Nc2nccs2)nc1C showed a solubility kinetic of 0.0007 mg/mL (≈ 2.11 µM).
For CC(C)c1nc(SCC(=O)Nc2nccs2)c2ccccc2n1, the solubility kinetic was 0.0006 mg/mL (≈ 1.74 µM).
In the case of O=C(COC(=O)c1c(F)cccc1Cl)NCC1CCCCC1, the solubility kinetic is reported as 0.0409 mg/mL (≈ 125 µM).
In the case of CC(=O)N1CCN(c2ccc(S(=O)(=O)N3CCOCC3)cc2[N+](=O)[O-])CC1, the solubility kinetic is reported as over 0.0598 mg/mL.
